According to paper PMC11240139, “Exploring the antitumor potential of novel quinoline derivatives via tubulin polymerization inhibition in breast cancer; design, synthesis and molecular docking” (RSC Advances, 2024):

Columns and labels:
Format in all cases: cell-based
[1] = system: SK-MEL-5 (melanoma); test: NCI-60 SRB cytotoxicity screen; settings: Homo sapiens; SK-MEL-5, single dose 10 μM; read-out: growth inhibition (GI%)
[2] = system: 786-0 (renal cancer); test: NCI-60 SRB cytotoxicity screen; settings: Homo sapiens; 786-0, single dose 10 μM; read-out: growth inhibition (GI%)
[3] = system: PC-3 (prostate cancer); test: NCI-60 SRB cytotoxicity screen; settings: PC-3, single dose 10 μM; read-out: growth inhibition (GI%)
[4] = system: HT29 (colon cancer); test: NCI-60 SRB cytotoxicity screen; settings: Homo sapiens, HT-29; HT29, single dose 10 μM; read-out: growth inhibition (GI%)
[5] = system: 60 cancer cell lines (NCI); test: NCI-60 single-dose screen, overall verdict over the panel; settings: single dose 10 μM, whole panel
Description: The cytotoxic activity of the synthesized quinoline derivatives was determined by the national cancer institute (NCI, Bethesda, Maryland, USA) against 60 different cancer cell lines at a single high dose (10^−5 M) in the full NCI 60 cell panel using the sulforhodamine B assay for cell viability evaluation. In summary, 5 × 10^3 cells were in 96-well plate and incubated in complete media for 24 h. Cells were treated with 100 μL of media containing each newly synthesized compound. After drug exposure, cells were fixed by replacing media with 150 μL of 10% TCA and incubated at 4 °C for 1 h. The TCA solution was removed, and the cells were washed 5 times with distilled water. Aliquots of 70 μL SRB solution (0.4% w/v) were added and incubated in a dark place at room temperature for 10 min. The plates were washed 3 times with 1% acetic acid and allowed to air-dry overnight. Then, 150 μL of TRIS (10 mM) was added to dissolve protein-bound SRB stain. The absorbance was measured at 540 nm.% Cytotoxicity = [1 − (AVx/AVNC)] × 100where AVx denotes the average absorbance of the sample well and AVNC denotes the average absorbance of the negative control.

[6] = system: TK-10 (renal cancer); test: NCI-60 SRB cytotoxicity screen; settings: Homo sapiens; TK-10, single dose 10 μM; read-out: growth inhibition (GI%)
[7] = system: HOP-92 (non-small cell lung cancer); test: NCI-60 SRB cytotoxicity screen; settings: Homo sapiens; HOP-92, single dose 10 μM; read-out: growth inhibition (GI%)
[8] = system: NCI-H23 (non-small cell lung cancer); test: NCI-60 SRB cytotoxicity screen; settings: Homo sapiens; NCI-H23, single dose 10 μM; read-out: growth inhibition (GI%)
[9] = system: NCI-H226 (non-small cell lung cancer); test: NCI-60 SRB cytotoxicity screen; settings: Homo sapiens; NCI-H226, single dose 10 μM; read-out: growth inhibition (GI%)
[10] = system: MOLT-4 (leukemia); test: NCI-60 SRB cytotoxicity screen; settings: Homo sapiens; MOLT-4, single dose 10 μM; read-out: growth inhibition (GI%)
[11] = system: HCC-2998 (colon cancer); test: NCI-60 SRB cytotoxicity screen; settings: Homo sapiens; HCC-2998, single dose 10 μM; read-out: growth inhibition (GI%)
[12] = system: HCT-116 (colon cancer); test: NCI-60 SRB cytotoxicity screen; settings: Homo sapiens; HCT-116, single dose 10 μM; read-out: growth inhibition (GI%)
[13] = system: NCI-H460 (non-small cell lung cancer); test: NCI-60 SRB cytotoxicity screen; settings: Homo sapiens; NCI-H460, single dose 10 μM; read-out: growth inhibition (GI%)
[14] = system: SNB-19 (CNS cancer); test: NCI-60 SRB cytotoxicity screen; settings: Homo sapiens; SNB-19, single dose 10 μM; read-out: growth inhibition (GI%)
[15] = system: U251 (CNS cancer); test: NCI-60 SRB cytotoxicity screen; settings: Homo sapiens, U-251; U251, single dose 10 μM; read-out: growth inhibition (GI%)
[16] = system: SF-539 (CNS cancer); test: NCI-60 SRB cytotoxicity screen; settings: Homo sapiens; SF-539, single dose 10 μM; read-out: growth inhibition (GI%)
[17] = system: A498 (renal cancer); test: NCI-60 SRB cytotoxicity screen; settings: Homo sapiens; A498, single dose 10 μM; read-out: growth inhibition (GI%)
[18] = system: NCI-H322M (non-small cell lung cancer); test: NCI-60 SRB cytotoxicity screen; settings: Homo sapiens, single dose 10 μM, read-out: growth inhibition (GI%)
[19] = system: SW-620 (colon cancer); test: NCI-60 SRB cytotoxicity screen; settings: Homo sapiens; SW-620, single dose 10 μM; read-out: growth inhibition (GI%)
[20] = system: CAKI-1 (renal cancer); test: NCI-60 SRB cytotoxicity screen; settings: Homo sapiens; CAKI-1, single dose 10 μM; read-out: growth inhibition (GI%)
[21] = system: SN12C (renal cancer); test: NCI-60 SRB cytotoxicity screen; settings: Homo sapiens, single dose 10 μM, read-out: growth inhibition (GI%)
[22] = system: SK-MEL-28 (melanoma); test: NCI-60 SRB cytotoxicity screen; settings: Homo sapiens; SK-MEL-28, single dose 10 μM; read-out: growth inhibition (GI%)
[23] = system: MCF7 (breast cancer); test: NCI-60 SRB cytotoxicity screen; settings: Homo sapiens; MCF7, single dose 10 μM; read-out: growth inhibition (GI%)
[24] = system: OVCAR-3 (ovarian cancer); test: NCI-60 SRB cytotoxicity screen; settings: Homo sapiens; OVCAR-3, single dose 10 μM; read-out: growth inhibition (GI%)
[25] = system: HL-60(TB) (leukemia); test: NCI-60 SRB cytotoxicity screen; settings: Homo sapiens, single dose 10 μM, read-out: growth inhibition (GI%)
[26] = system: OVCAR-4 (ovarian cancer); test: NCI-60 SRB cytotoxicity screen; settings: Homo sapiens; OVCAR-4, single dose 10 μM; read-out: growth inhibition (GI%)
[27] = system: MDA-MB-231/ATCC (breast cancer); test: NCI-60 SRB cytotoxicity screen; settings: Homo sapiens, MDA-MB-231, read-out: growth inhibition (GI%);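 note: growth inhibition in percent at a single 10 µM dose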
[28] = system: M14 (melanoma); test: NCI-60 SRB cytotoxicity screen; settings: Homo sapiens; M14, single dose 10 μM; read-out: growth inhibition (GI%)
[29] = system: MDA-MB-468 (breast cancer); test: NCI-60 SRB cytotoxicity screen; settings: Homo sapiens; MDA-MB-468, single dose 10 μM; read-out: growth inhibition (GI%)
Method in brief: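 NCI-60 single-dose (10^−5 M) screen in MDA-MB-468 with SRB protein-stain read-out after 48 h exposure; cells TCA-fixed and absorbance read at 540 nm. Reported as GI%, with compounds meeting NCI activity criteria then run at five doses (0.01–100 μM).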

[30] = system: MDA-MB-435 (melanoma); test: NCI-60 SRB cytotoxicity screen; settings: Homo sapiens, MDA-MB-435, read-out: growth inhibition (GI%);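 note: growth inhibition in percent at a single 10 µM dose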
[31] = system: UO-31 (renal cancer); test: NCI-60 SRB cytotoxicity screen; settings: Homo sapiens; UO-31, single dose 10 μM; read-out: growth inhibition (GI%)

Compound | inhibition at 10 µM [1] [%] | inhibition at 10 µM [2] [%] | inhibition at 10 µM [3] [%] | inhibition at 10 µM [4] [%] | cytotoxic activity over the cell lines (in words) [5] | inhibition at 10 µM [6] [%] | inhibition at 10 µM [7] [%] | inhibition at 10 µM [8] [%] | inhibition at 10 µM [9] [%] | inhibition at 10 µM [10] [%] | inhibition at 10 µM [11] [%] | inhibition at 10 µM [12] [%] | inhibition at 10 µM [13] [%] | inhibition at 10 µM [14] [%] | inhibition at 10 µM [15] [%] | inhibition at 10 µM [16] [%] | inhibition at 10 µM [17] [%] | inhibition at 10 µM [18] [%] | inhibition at 10 µM [19] [%] | inhibition at 10 µM [20] [%] | other results
CCc1cccc2cc(C3C=C(c4ccc(OC)cc4)NC(=S)N3)c(Cl)nc12 (centres unmarked) [Compound 6a, 4-(2-Chloro-8-ethylquinolin-3-yl)-6-(4-methoxyphenyl)-3,4-dihydropyrimidine-2(1H)-thione] | < 10 | < 10 | < 10 | < 10 | limited cytotoxic activity | < 10 | < 10 | < 10 | < 10 | < 10 | < 10 | < 10 | < 10 | < 10 | < 10 | < 10 | < 10 | < 10 | < 10 | 16.2 | inhibition at 10 µM [21]: < 10%; inhibition at 10 µM [22]: < 10%; inhibition at 10 µM [23]: < 10%; inhibition at 10 µM [24]: < 10%; inhibition at 10 µM [25]: < 10%; inhibition at 10 µM [26]: < 10%; inhibition at 10 µM [27]: < 10%; inhibition at 10 µM [28]: 13.2%; inhibition at 10 µM [29]: < 10%; inhibition at 10 µM [30]: < 10%; inhibition at 10 µM [31]: 18.6%
CCc1cccc2cc(-c3cc(-c4ccc(OC)cc4)[nH]c(=S)c3C#N)c(Cl)nc12 [Compound 5a, 4-(2-Chloro-8-ethylquinolin-3-yl)-6-(4-methoxyphenyl)-2-thioxo-1,2-dihydropyridine-3-carbonitrile] | < 10 | < 10 | < 10 | < 10 | slight cytotoxic activity | < 10 | 36.2 | 11.8 | 15.9 | 12.7 | < 10 | 14.8 | < 10 | 13.2 | < 10 | < 10 | < 10 | 17.6 | < 10 | 44.7 | inhibition at 10 µM [21]: 10.3%; inhibition at 10 µM [22]: < 10%; inhibition at 10 µM [23]: 20.8%; inhibition at 10 µM [24]: < 10%; inhibition at 10 µM [25]: 14.9%; inhibition at 10 µM [26]: 24.5%; inhibition at 10 µM [27]: 18.1%; inhibition at 10 µM [28]: < 10%; inhibition at 10 µM [29]: 18.7%; inhibition at 10 µM [30]: < 10%; inhibition at 10 µM [31]: 19.7%
